The results in this text go back to patent publication US20180008587A1, “THIOHYDANTOIN ANDROGEN RECEPTOR ANTAGONISTS FOR THE TREATMENT OF CANCER” (Jaressen Pharmaceutica NV, priority 2016, published 2018).

Positions count from the first letter of the chain named. Like-named read-outs stand apart in the source and are kept apart here.

Holding throughout (format): cell-based
Assay [1] has as its target T1, F876L mutant Androgen Receptor (AR-F876L) (Homo sapiens, UniProt P10275, F877L).
T1 construct: expressed in transfected cells; host or cells: LNCaP (LNCaP F876L)
T1 sequence (P10275 1-920 F877L): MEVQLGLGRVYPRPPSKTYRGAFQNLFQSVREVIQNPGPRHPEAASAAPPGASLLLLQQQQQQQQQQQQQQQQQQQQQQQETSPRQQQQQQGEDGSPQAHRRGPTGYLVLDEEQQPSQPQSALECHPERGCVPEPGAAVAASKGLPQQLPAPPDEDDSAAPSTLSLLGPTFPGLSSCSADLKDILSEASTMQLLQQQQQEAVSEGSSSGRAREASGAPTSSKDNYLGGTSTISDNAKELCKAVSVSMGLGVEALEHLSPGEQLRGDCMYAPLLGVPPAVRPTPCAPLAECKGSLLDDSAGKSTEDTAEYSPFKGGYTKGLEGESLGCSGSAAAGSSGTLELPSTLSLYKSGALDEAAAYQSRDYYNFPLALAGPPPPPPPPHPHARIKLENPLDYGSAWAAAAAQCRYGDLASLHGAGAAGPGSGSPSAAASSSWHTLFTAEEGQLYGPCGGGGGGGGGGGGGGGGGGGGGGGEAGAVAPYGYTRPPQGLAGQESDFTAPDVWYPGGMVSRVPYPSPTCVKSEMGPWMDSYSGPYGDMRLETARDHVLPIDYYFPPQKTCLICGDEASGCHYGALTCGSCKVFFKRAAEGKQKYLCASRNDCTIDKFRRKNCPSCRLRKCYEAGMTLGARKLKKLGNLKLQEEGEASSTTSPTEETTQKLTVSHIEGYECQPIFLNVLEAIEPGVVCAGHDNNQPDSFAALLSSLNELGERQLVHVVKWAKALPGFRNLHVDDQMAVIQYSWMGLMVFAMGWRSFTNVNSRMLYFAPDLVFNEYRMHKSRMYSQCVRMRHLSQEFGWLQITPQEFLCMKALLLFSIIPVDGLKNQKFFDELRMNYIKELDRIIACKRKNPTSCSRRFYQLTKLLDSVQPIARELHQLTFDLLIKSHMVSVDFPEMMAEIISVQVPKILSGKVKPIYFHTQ
Briefly: LNCaP-AR-F876L AG reporter assay (ARE firefly luciferase, agonist mode). Particulars: for Emax: read-out: LNCaP-AR-F876L AG MAX % Stim. In outline: (§1)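 LNCaP cells stably expressing wild-type or F876L AR (puromycin-selected pooled populations) were cultured in charcoal-stripped serum medium. In antagonist mode, agonist challenge was 400 pM for wild-type and 600 pM for F876L.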

For assay [2], the target named is T2, wild-type Androgen Receptor (AR-wt) (Homo sapiens, UniProt P10275).
T2 construct: expressed in transfected cells; host or cells: LNCaP (LNCaP AR (cs))
T2 sequence (P10275 1-920): T1 sequence (P10275 1-920 F877L) with L877F
Briefly: LNCaP-AR-wt AG reporter assay (ARE firefly luciferase, agonist mode). Particulars: for Emax: read-out: LNCaP-AR-wt AG MAX % Stim. In outline:
as §1

In assay [3] the target is T1, F876L mutant Androgen Receptor (AR-F876L). Briefly: LNCaP-AR-F876L ANT reporter assay (ARE firefly luciferase, antagonist mode). Particulars: for Emax: read-out: LNCaP-AR-F876L ANT MAX % Inh; for IC50: read-out: LNCaP-AR-F876L ANT pIC50 (converted). In outline: as §1
The target in assay [4] is T2, wild-type Androgen Receptor (AR-wt). Briefly: LNCaP-AR-wt ANT reporter assay (ARE firefly luciferase, antagonist mode). Particulars: for IC50: antagonist mode, 400 pM R-1881 challenge, −Log10(IC50 [Molar]), read-out: LNCaP-AR-wt ANT pIC50 (converted); for Emax: read-out: LNCaP-AR-wt ANT MAX % Inh. In outline: as §1
Setting [5] is: agonist mode, −Log10(EC50 [Molar]), read-out: LNCaP-AR-F876L AG pEC50 (converted).
Where [6] appears, read: maximum % stimulation (agonist response) over tested concentration range.
Where [7] appears, read: agonist mode, −Log10(EC50 [Molar]), read-out: LNCaP-AR-wt AG pEC50 (converted).
The mark [8] stands for this setting: maximum % inhibition of R1881 control response over tested concentration range.

`N#Cc1ncc(N2C(=O)C3(CCC3)N(c3ccc(Oc4ccccn4)cc3)C2=S)cc1C(F)(F)F` [Cpd 103, 5-[5-oxo-8-[4-(2-pyridyloxy)phenyl]-7-thioxo-6,8-diazaspiro[3.4]octan-6-yl]-3-(trifluoromethyl)pyridine-2-carbonitrile]: the EC50 in assay [1] and in assay [2] was greater than 15.1 µM throughout. Further, the Emax in assay [1] is 2%; in assay [2], 4%; in assay [3] it was 64.9%; in assay [4], 29%. In addition, the values for the IC50 in assay [3] and in assay [4] were 0.107 µM and 0.562 µM, respectively.
For the compound `N#Cc1ncc(N2C(=O)C3(CCC3)N(c3cccc4ccccc34)C2=S)cc1C(F)(F)F` [Cpd 34, 5-[8-(1-naphthyl)-5-oxo-7-thioxo-6,8-diazaspiro[3.4]octan-6-yl]-3-(trifluoromethyl)pyridine-2-carbonitrile], the EC50 in assay [1] and in assay [2] was greater than 15.1 µM throughout. Moreover, the Emax in assay [1] was 0.2%; in assay [2], -0.1%; in assay [3], 99.4%; in assay [4], 99.7%. For the same compound, the IC50 was 0.617 µM in assay [3] and 0.562 µM in assay [4].
In the case of `N#Cc1ncc(N2C(=O)C3(CCC3)N(c3ccc(Oc4ccncn4)cc3)C2=S)cc1C(F)(F)F` [Cpd 71, 5-[5-oxo-8-(4-pyrimidin-4-yloxyphenyl)-7-thioxo-6,8-diazaspiro[3.4]octan-6-yl]-3-(trifluoromethyl)pyridine-2-carbonitrile], the EC50 in assay [1] and in assay [2] was greater than 15.1 µM in each case. The Emax in assay [1] came to 0.9%; in assay [2], 0.5%; in assay [3], 97.5%; in assay [4], 98.8%. Further, the IC50 is 0.251 µM in assay [3] and 0.214 µM in assay [4].
`CNC(=O)c1ccc(N2C(=S)N(c3cnc(C#N)c(C)c3)C(=O)C2(C)C)cc1F` [Cpd 12, 4-[3-(6-cyano-5-methyl-3-pyridyl)-5,5-dimethyl-4-oxo-2-thioxo-imidazolidin-1-yl]-2-fluoro-N-methyl-benzamide]: the EC50 in assay [1] and in assay [2] was greater than 15.1 µM in each case. Moreover, the Emax was -0.3% in assay [1], 0.9% in assay [2], 98.7% in assay [3] and 98.4% in assay [4]. The IC50 was 0.229 µM in assay [3] and 1.74 µM in assay [4].
`N#Cc1ncc(N2C(=O)C3(CCC3)N(c3ccc(Oc4cncnc4)cc3)C2=S)cc1C(F)(F)F` [Cpd 88, 5-[5-oxo-8-(4-pyrimidin-5-yloxyphenyl)-7-thioxo-6,8-diazaspiro[3.4]octan-6-yl]-3-(trifluoromethyl)pyridine-2-carbonitrile]: the EC50 in assay [1] and in assay [2] was greater than 15.1 µM each time. Besides, the Emax was found to be 0.7% in assay [1], 0.7% in assay [2], 87.3% in assay [3] and 97.2% in assay [4]. The IC50 in assay [3] was 0.138 µM; in assay [4], 0.631 µM.
`N#Cc1ncc(N2C(=O)C3(CCC3)N(c3ccc4ccncc4c3)C2=S)cc1C(F)(F)F` [Cpd 7, 5-[8-(7-isoquinolyl)-5-oxo-7-thioxo-6,8-diazaspiro[3.4]octan-6-yl]-3-(trifluoromethyl)pyridine-2-carbonitrile]: the EC50 in assay [1] and in assay [2] was greater than 15.1 µM throughout. Besides, the Emax is 0% in assay [1], -0.2% in assay [2], 100% in assay [3] and 101% in assay [4]. Also, the IC50 in assay [3] was 0.234 µM; in assay [4], 0.417 µM.
Take `N#Cc1ncc(N2C(=O)C3(CCC3)N(c3ccc(C4CCOCC4)cc3)C2=S)cc1C(F)(F)F` [Cpd 89, 5-[5-oxo-8-(4-tetrahydropyran-4-ylphenyl)-7-thioxo-6,8-diazaspiro[3.4]octan-6-yl]-3-(trifluoromethyl)pyridine-2-carbonitrile]: the EC50 in assay [1] (setting [5]) and in assay [2] (setting [7]) was greater than 15.1 µM in each case. Besides, the Emax in assay [1] (setting [6]) came out at 1.4%; in assay [2] (setting [6]), 0.3%; in assay [3] (setting [8]) it was 96.2%; in assay [4] (setting [8]), 101%. The IC50 in assay [3] is 0.437 µM; in assay [4], 0.631 µM.
As for `CCOC(=O)CCCNC(=O)c1ccc(N2C(=S)N(c3cnc(C#N)c(C(F)(F)F)c3)C(=O)C23CCC3)cc1F` [Cpd 82, ethyl 4-[[4-[6-[6-cyano-5-(trifluoromethyl)-3-pyridyl]-5-oxo-7-thioxo-6,8-diazaspiro[3.4]octan-8-yl]-2-fluoro-benzoyl]amino]butanoate], the EC50 in assay [1] (setting [5]) and in assay [2] (setting [7]) was greater than 15.1 µM in each case. Also, the Emax in assay [1] (setting [6]) came to 1.2%; in assay [2] (setting [6]) it was 0%; in assay [3] (setting [8]), 95.5%; in assay [4] (setting [8]) it was 103%. In addition, the IC50 in assay [3] was 0.437 µM; in assay [4] it was 0.363 µM.
In the case of `Cc1ccc(N2C(=S)N(c3cnc(C#N)c(C(F)(F)F)c3)C(=O)C23CCC3)cc1F` [Cpd 115, 5-[8-(3-fluoro-4-methyl-phenyl)-5-oxo-7-thioxo-6,8-diazaspiro[3.4]octan-6-yl]-3-(trifluoromethyl)pyridine-2-carbonitrile], the EC50 in assay [1] (setting [5]) and in assay [2] (setting [7]) was greater than 15.1 µM each time. The Emax was found to be 3.4% in assay [1] (setting [6]), 1.1% in assay [2] (setting [6]), 96.1% in assay [3] (setting [8]) and 100% in assay [4] (setting [8]). For the same compound, the IC50 in assay [3] is 0.437 µM; in assay [4], 0.372 µM.
In the case of `Cc1cc(N2C(=O)C3(CCC3)N(c3ccc(C(=O)NCC4CCOCC4)c(F)c3)C2=S)cnc1C#N` [Cpd 3, 4-[6-(6-cyano-5-methyl-3-pyridyl)-5-oxo-7-thioxo-6,8-diazaspiro[3.4]octan-8-yl]-2-fluoro-N-(tetrahydropyran-4-ylmethyl)benzamide], the EC50 in assay [1] (setting [5]) and in assay [2] (setting [7]) was greater than 15.1 µM throughout. In addition, the Emax in assay [1] (setting [6]) is -0.3%; in assay [2] (setting [6]) it was 0.3%; in assay [3] (setting [8]), 98.9%; in assay [4] (setting [8]), 99.6%. Also, the IC50 in assay [3] is 0.324 µM; in assay [4] it was 1.35 µM.
